The subject of one series is LRP1. The conditions noted are these: read-out: LRP1-binding EC50; ref [18]; cited from earlier work.
Another series relates to LRP1(CL2). Conditions: ref [18]; cited from earlier work.
Series [1] relates to in vitro rat BBB model kit (RBT-24H). Kind of series: BBB permeability in in vitro rat BBB model. The series is classed as in vitro ADME. Conditions: 1 μM input, 30 min, 37 °C, fluorescence, n = 1.
The next series has as its target human LRP1(CL2)-Fc (Homo sapiens, UniProt Q07954). The series is described as follows: Cell-free ELISA, binding of biotinylated peptide to captured LRP1. Conditions: Fig. 3, n = 3.
For a further series, the target named is human LRP1(CL3)-Fc (Homo sapiens, UniProt Q07954). Described as above. Conditions: Fig. 3, n = 3.
For a further series, the target named is human LRP1(CL4)-Fc (Homo sapiens, UniProt Q07954). The description is as above. Conditions: Supplementary Fig. S1.

Bridge positions count the residues as written; N and C are the ends. Square brackets hold non-standard residues; d marks the D form. Peptide text beside a SMILES is read from it. * marks the point of attachment. Biotin = O=C1N[C@H]2[C@H](CS[C@H]2CCCCC(=O)*)N1; Nle = CCCC[C@H](N)C(=O)O

Results on five molecules are retold here after publication PMC9552116 (Biochemistry and Biophysics Reports, 2022).

As usually defined, the EC50 is the midpoint of the concentration-response curve.

For TWPKHFDKHTFYSILKLGKH-OH [Pep L57], in the series with LRP1, the EC50 was 45 nM. Further, the “cross-reactivity to LRP1(CL2)” value with LRP1(CL2) is given as “cross-reactivity”.
Take `C[C@@H](O)[C@H](NC(=O)CNC(=O)[C@@H](N)CCCCNC(=O)c1ccc2c(c1)C(=O)OC21c2ccc(O)cc2Oc2cc(O)ccc21)C(=O)N[C@@H](Cc1ccccc1)C(=O)N[C@@H](Cc1ccccc1)C(=O)N[C@@H](Cc1ccc(O)cc1)C(=O)NCC(=O)NCC(=O)N[C@@H](CO)C(=O)N[C@@H](CCCNC(=N)N)C(=O)NCC(=O)N[C@@H](CCCCN)C(=O)N[C@@H](CCCNC(=N)N)C(=O)N[C@@H](CC(N)=O)C(=O)N[C@@H](CC(N)=O)C(=O)N[C@@H](Cc1ccccc1)C(=O)N[C@@H](CCCCN)C(=O)N[C@H](C(=O)N[C@@H](CCC(=O)O)C(=O)N[C@@H](CCC(=O)O)C(=O)N[C@@H](Cc1ccc(O)cc1)C(=O)O)[C@@H](C)O` [Pep 5FAM-ANG2]: in series [1], the “% input crossed to the brain side” value was “below 0.5%”.
Consider `CCCC[C@H](NC(=O)[C@H](CCC(=O)O)NC(=O)[C@H](C)NC(=O)[C@H](CC(C)C)NC(=O)[C@H](CCCC)NC(=O)[C@H](Cc1ccc(O)cc1)NC(=O)[C@H](CCCCN)NC(=O)[C@H](Cc1ccc(O)cc1)NC(=O)[C@@H](NC(=O)[C@H](CS)NC(=O)[C@@H]1CCCN1C(=O)[C@@H](NC(=O)CNC(=O)[C@H](CCCCNC(=O)CCCC[C@@H]1SC[C@@H]2NC(=O)N[C@@H]21)NC(C)=O)[C@@H](C)O)[C@@H](C)O)C(=O)N[C@@H](CS)C(=O)O` [Biotin-KS-487(linear)] (Ac-K(Biotin)GTPCTYKY[Nle]LAE[Nle]C-OH), for which the “binding to LRP1(CL2)” value on human LRP1(CL2)-Fc is reported as “no binding or slight binding”. Besides, the “binding to LRP1(CL3)” value on human LRP1(CL3)-Fc is given as “no binding or slight binding”.
Consider `CSCC[C@@H]1NC(=O)[C@H](CCC(=O)O)NC(=O)[C@H](C)NC(=O)[C@H](CC(C)C)NC(=O)[C@H](CCSC)NC(=O)[C@H](Cc2ccc(O)cc2)NC(=O)[C@H](CCCCN)NC(=O)[C@H](Cc2ccc(O)cc2)NC(=O)[C@H]([C@@H](C)O)NC(=O)[C@@H](NC(=O)[C@@H]2CCCN2C(=O)[C@@H](NC(=O)CNC(=O)[C@H](CCCCNC(=O)CCCC[C@@H]2SC[C@@H]3NC(=O)N[C@@H]32)NC(C)=O)[C@@H](C)O)CSSC[C@@H](C(=O)O)NC1=O` [Biotin-Pep0] (Ac-K(Biotin)GTPCTYKYMLAEMC-OH; disulfide 5-15; N-terminus and C-terminus assumed), for which the “binding activity to LRP1(CL4)” value at human LRP1(CL4)-Fc was “moderate binding activity”.
As to `CCCC[C@@H]1NC(=O)[C@H](CCC(=O)O)NC(=O)[C@H](C)NC(=O)[C@H](CC(C)C)NC(=O)[C@H](CCCC)NC(=O)[C@H](Cc2ccc(O)cc2)NC(=O)[C@H](CCCCN)NC(=O)[C@H](Cc2ccc(O)cc2)NC(=O)[C@H]([C@@H](C)O)NC(=O)[C@@H](NC(=O)[C@@H]2CCCN2C(=O)[C@@H](NC(=O)CNC(=O)[C@H](CCCCNC(=O)CCCC[C@@H]2SC[C@@H]3NC(=O)N[C@@H]32)NC(C)=O)[C@@H](C)O)CSSC[C@@H](C(=O)O)NC1=O` [Biotin-KS-487] (Ac-K(Biotin)GTPCTYKY[Nle]LAE[Nle]C-OH; disulfide 5-15), the “binding to LRP1(CL2)” value at human LRP1(CL2)-Fc is listed as “no binding or slight binding”. Further, on human LRP1(CL3)-Fc, the “binding to LRP1(CL3)” value was “no binding or slight binding”.
